In US20260337190A1, “CRYSTAL FORM OF PYRIDINOPYRIMIDINONE COMPOUND, ACID SALT THEREOF, CRYSTAL FORM OF ACID SALT THEREOF, AND USE” (Wuhan Humanwell Innovative Drug Research and Development …, priority 2022, published 2026):

Assays:
[1] = biological target: T1, KRAS G12C-SOS1 (Homo sapiens, UniProt Q07889); assay: Inhibitory effect on KRAS G12C-SOS1; type: biochemical; parameters: SOS1 catalytic domain likely; conditions: summary statement
T1 sequence (Q07889 1-1333): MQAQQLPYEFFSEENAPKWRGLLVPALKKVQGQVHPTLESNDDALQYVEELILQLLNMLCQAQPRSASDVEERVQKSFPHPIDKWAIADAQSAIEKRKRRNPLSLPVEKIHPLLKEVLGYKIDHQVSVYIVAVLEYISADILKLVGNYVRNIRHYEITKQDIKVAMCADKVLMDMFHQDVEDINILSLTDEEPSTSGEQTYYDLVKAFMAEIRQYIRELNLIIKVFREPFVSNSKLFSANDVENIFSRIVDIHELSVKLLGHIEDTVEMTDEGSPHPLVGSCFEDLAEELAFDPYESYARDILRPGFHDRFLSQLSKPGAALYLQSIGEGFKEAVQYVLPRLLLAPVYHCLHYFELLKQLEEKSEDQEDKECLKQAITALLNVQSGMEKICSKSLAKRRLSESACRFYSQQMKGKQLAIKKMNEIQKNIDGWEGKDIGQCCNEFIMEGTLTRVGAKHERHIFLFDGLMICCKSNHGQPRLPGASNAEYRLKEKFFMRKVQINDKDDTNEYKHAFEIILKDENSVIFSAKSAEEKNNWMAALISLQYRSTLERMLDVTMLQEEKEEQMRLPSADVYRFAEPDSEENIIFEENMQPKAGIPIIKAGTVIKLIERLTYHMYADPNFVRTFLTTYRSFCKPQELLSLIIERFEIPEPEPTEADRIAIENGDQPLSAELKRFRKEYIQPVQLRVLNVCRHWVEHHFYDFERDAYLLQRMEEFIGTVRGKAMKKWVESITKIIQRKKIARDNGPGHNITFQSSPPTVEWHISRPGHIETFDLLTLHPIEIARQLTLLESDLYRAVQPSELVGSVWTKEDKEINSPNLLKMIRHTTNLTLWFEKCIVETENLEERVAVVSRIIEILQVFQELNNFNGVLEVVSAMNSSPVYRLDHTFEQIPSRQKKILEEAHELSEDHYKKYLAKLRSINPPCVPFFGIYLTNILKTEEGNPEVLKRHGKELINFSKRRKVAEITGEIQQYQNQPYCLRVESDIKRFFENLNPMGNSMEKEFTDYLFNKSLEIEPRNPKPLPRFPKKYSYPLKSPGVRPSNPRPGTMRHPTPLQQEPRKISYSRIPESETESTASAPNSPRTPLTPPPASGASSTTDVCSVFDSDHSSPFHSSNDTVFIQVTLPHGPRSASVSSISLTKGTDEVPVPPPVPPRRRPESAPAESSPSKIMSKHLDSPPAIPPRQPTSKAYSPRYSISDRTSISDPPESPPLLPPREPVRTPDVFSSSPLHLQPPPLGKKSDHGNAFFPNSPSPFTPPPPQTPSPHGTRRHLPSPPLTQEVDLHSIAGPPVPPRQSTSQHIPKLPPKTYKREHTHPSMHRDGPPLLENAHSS

[2] = biological target: T2, CYP3A4 (Homo sapiens, UniProt P08684); assay: Inhibition of cytochrome P450 CYP3A4 (substrates midazolam and testosterone); type: in vitro ADME; conditions: role: inhibitor; summary statement
T2 construct: probe substrates midazolam and testosterone, ketoconazole control
T2 sequence (P08684 whole entry): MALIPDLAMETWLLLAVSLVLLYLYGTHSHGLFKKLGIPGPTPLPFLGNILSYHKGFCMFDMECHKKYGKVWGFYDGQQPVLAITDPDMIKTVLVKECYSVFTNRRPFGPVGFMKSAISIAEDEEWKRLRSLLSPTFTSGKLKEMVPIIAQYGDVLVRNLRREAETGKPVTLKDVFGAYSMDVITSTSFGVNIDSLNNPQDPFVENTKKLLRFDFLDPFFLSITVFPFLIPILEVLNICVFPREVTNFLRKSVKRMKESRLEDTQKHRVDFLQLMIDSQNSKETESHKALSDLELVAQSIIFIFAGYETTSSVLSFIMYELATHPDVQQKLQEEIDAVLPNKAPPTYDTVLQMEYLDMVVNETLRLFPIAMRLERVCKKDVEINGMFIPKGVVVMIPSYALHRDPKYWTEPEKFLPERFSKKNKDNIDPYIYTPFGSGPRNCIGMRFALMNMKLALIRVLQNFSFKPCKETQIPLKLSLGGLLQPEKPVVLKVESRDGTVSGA

[3] = biological target: T1, KRAS G12C-SOS1; assay: Inhibition of KRAS G12C::SOS1 binding; conditions: summary statement

inhibitory effect on KRAS G12C-SOS1 [1]: significant inhibitory effect
inhibitory effect on CYP3A4 enzymes [2]: no inhibitory effect
inhibitory effect on KRAS G12C::SOS1 binding [3]: significant inhibitory effect
SMILES: Cc1nc(N[C@H](C)c2cccc(S(F)(F)(F)(F)F)c2)c2cn(C3(CF)CC3)c(=O)cc2n1 [compound of formula I, (R)-6-(1-(fluoromethyl)cyclopropyl)-2-methyl-4-((1-(3-(pentafluorosulfanyl)phenyl)ethyl)amino)pyrido[4,3-d]pyrimidin-7(6H)-one]
